The text below walks through data of ChEMBL document CHEMBL4622878, “Cytotoxic Activity of Germacrane-Type Sesquiterpene Lactones from Dimerostemma aspilioides” (J Nat Prod, 2020).

In assay [1] the test system is K562. Description: Cytotoxicity against human K562 cells after 48 hrs by MTT assay. In kind it is functional, cell-based. The conditions noted are these: K562, 48 h.
The subject of assay [2] is CCRF-CEM. Description: Cytotoxicity against human CCRF-CEM cells after 48 hrs by MTT assay. In kind it is functional, cell-based. Background: Tetrazolium dyes change colour on reduction, which living cells bring about.
The subject of assay [3] is ADR5000 cell line. Description: Cytotoxicity against human CEM/ADR5000 cells after 48 hrs by MTT assay. In kind it is functional, cell-based. The conditions noted are these: ADR5000, 48 h.
In assay [4] the test system is K562-Lucena 1. Description: Cytotoxicity against human K562-Lucena 1 cells after 48 hrs by MTT assay. The conditions noted are these: K562-Lucena 1, 48 h. It is filed as functional, cell-based.
Assay [5] relates to K562. Description: Induction of apoptosis in human K562 cells assessed as necrotic cells at 2 mM after 24 hrs by Annexin V-FITC/PI double staining based flow cytometry analysis (reference value: 0.085%). It is filed as functional. For orientation: Flow cytometry measures light scatter and fluorescence of single cells or particles in a stream.
Assay [6] deals with K562. Description: Induction of morphological changes in human K562 cells assessed as appearance of apoptotic bodies at 2 mM incubated for 48 hrs by DAPI staining based fluorescence microscopy. In kind it is functional, cell-based.
Assay [7] concerns K562-Lucena 1. Description: Induction of cell cycle arrest in human K562-Lucena 1 cells assessed as early apoptotic cells at 2 mM after 24 hrs by propidium iodide staining based flow cytometric analysis (reference value: 7.79%). In kind it is functional.
Assay [8] concerns K562. Description: Induction of apoptosis in human K562 cells assessed as late apoptotic cells at 2 mM after 24 hrs by Annexin V-FITC/PI double staining based flow cytometry analysis (reference value: 0.79%). In kind it is functional.
For assay [9], the system named is K562-Lucena 1. Description: Induction of cell cycle arrest in human K562-Lucena 1 cells assessed as late apoptotic cells at 2 mM after 24 hrs by propidium iodide staining based flow cytometric analysis (reference value: 3.15%). In kind it is functional.
Assay [10] concerns K562-Lucena 1. Description: Induction of DNA fragmentation in human K562-Lucena 1 cells at 2 mM incubated for 48 hrs by DAPI staining based fluorescence microscopy. It is filed as functional, cell-based.
In assay [11] the test system is K562-Lucena 1. Kind of assay: Induction of cell cycle arrest in human K562-Lucena 1 cells assessed as early apoptotic cells at 2 mM after 48 hrs by propidium iodide staining based flow cytometric analysis (reference value: 7.57%). It is filed as functional.
The subject of assay [12] is K562. Description: Induction of apoptosis in human K562 cells assessed as viable cells at 2 mM after 24 hrs by Annexin V-FITC/PI double staining based flow cytometry analysis (Rvb =96.4%). The conditions noted are these: K562, 24 h, read-out: Activity. In kind it is functional.
In assay [13] the test system is K562-Lucena 1. Kind of assay: Induction of morphological changes in human K562-Lucena 1 cells assessed as appearance of condensed chromatin at 2 mM incubated for 48 hrs by DAPI staining based fluorescence microscopy. It is filed as functional, cell-based.
In assay [14] the test system is K562-Lucena 1. Description: Induction of cell cycle arrest in human K562-Lucena 1 cells assessed as late apoptotic cells at 2 mM after 48 hrs by propidium iodide staining based flow cytometric analysis (reference value: 3.23%). In kind it is functional.
The test system of assay [15] is K562. Kind of assay: Induction of apoptosis in human K562 cells assessed as late apoptotic cells at 2 mM after 48 hrs by Annexin V-FITC/PI double staining based flow cytometry analysis (reference value: 0.41%). It is filed as functional.
For assay [16], the system named is K562. Description: Induction of apoptosis in human K562 cells assessed as early apoptotic cells at 2 mM after 48 hrs by Annexin V-FITC/PI double staining based flow cytometry analysis (reference value: 1.67%). In kind it is functional.
In assay [17] the test system is K562-Lucena 1. Description: Induction of cell cycle arrest in human K562-Lucena 1 cells assessed as necrotic cells at 2 mM after 48 hrs by propidium iodide staining based flow cytometric analysis (reference value: 2.15%). In kind it is functional.
Assay [18] relates to K562. Kind of assay: Induction of apoptosis in human K562 cells assessed as early apoptotic cells at 2 mM after 24 hrs by Annexin V-FITC/PI double staining based flow cytometry analysis (reference value: 2.76%). In kind it is functional.
Assay [19] relates to K562-Lucena 1. Kind of assay: Induction of cell cycle arrest in human K562-Lucena 1 cells assessed as viable cells at 2 mM after 24 hrs by propidium iodide staining based flow cytometric analysis (reference value: 88%). The conditions noted are these: K562-Lucena 1, 24 h, read-out: Activity. In kind it is functional.
In assay [20] the test system is K562. Kind of assay: Induction of apoptosis in human K562 cells assessed as necrotic cells at 2 mM after 48 hrs by Annexin V-FITC/PI double staining based flow cytometry analysis (reference value: 0.13%). It is filed as functional.
The subject of assay [21] is K562-Lucena 1. Kind of assay: Induction of cell cycle arrest in human K562-Lucena 1 cells assessed as viable cells at 2 mM after 48 hrs by propidium iodide staining based flow cytometric analysis (reference value: 87.1%). In kind it is functional. The conditions noted are these: K562-Lucena 1, 48 h, read-out: Activity.
Assay [22] deals with K562. Description: Induction of DNA fragmentation in human K562 cells at 2 mM incubated for 48 hrs by DAPI staining based fluorescence microscopy. It is filed as functional, cell-based.
In assay [23] the test system is K562-Lucena 1. Description: Induction of cell cycle arrest in human K562-Lucena 1 cells assessed as necrotic cells at 2 mM after 24 hrs by propidium iodide staining based flow cytometric analysis (reference value: 1.03%). In kind it is functional.
Assay [24] deals with K562. Kind of assay: Induction of apoptosis in human K562 cells assessed as viable cells at 2 mM after 48 hrs by Annexin V-FITC/PI double staining based flow cytometry analysis (Rvb =97.8%). The conditions noted are these: K562, 48 h, read-out: Activity. It is filed as functional.
Assay [25] concerns K562-Lucena 1. Kind of assay: Induction of morphological changes in human K562-Lucena 1 cells assessed as appearance of apoptotic bodies at 2 mM incubated for 48 hrs by DAPI staining based fluorescence microscopy. It is filed as functional, cell-based.
Assay [26] concerns K562. Kind of assay: Induction of morphological changes in human K562 cells assessed as appearance of condensed chromatin at 2 mM incubated for 48 hrs by DAPI staining based fluorescence microscopy. It is filed as functional, cell-based.
For assay [27], the system named is K562. Kind of assay: Induction of cell cycle arrest in human K562 cells assessed as decrease in accumulation of cells at G1 phase at 1.4 uM after 24 hrs by propidium iodide staining based flow cytometric analysis. It is filed as functional.
The subject of assay [28] is K562. Kind of assay: Induction of cell cycle arrest in human K562 cells assessed as decrease in accumulation of cells at S phase at 1.4 uM after 24 hrs by propidium iodide staining based flow cytometric analysis. In kind it is functional.
Assay [29] relates to K562-Lucena 1. Description: Induction of cell cycle arrest in human K562-Lucena 1 cells assessed as decrease in accumulation of cells at G1 phase at 40 uM after 24 hrs by propidium iodide staining based flow cytometric analysis. In kind it is functional.

Calls of active or inactive are those of the source. The rule behind the calls is not given here.

The IC50 is the concentration at which inhibition is half-maximal. Low values mean higher potency, high ones lower potency. As for `C=C(CO)C(=O)O[C@H]1C/C(CO)=C/CC/C(C)=C/[C@H]2OC(=O)C(=C)[C@H]12`, the IC50 is 7 µM in assay [1], 0.46 µM in assay [2], 1.7 µM in [3] and above 10 µM in [4].

`C=C(CO)C(=O)O[C@H]1C[C@@]2(C=O)OC2CC/C(C)=C/[C@H]2OC(=O)C(=C)[C@H]12` (stereo partly specified): the IC50 in assay [1] was 6.9 µM; in [2], 2 µM; in assay [3] it was 4.6 µM; in [4], above 10 µM.

Consider `NC(=O)NO` [HYDROXYUREA], for which the Activity in [5] came out at 0.75%; in [7], 15.3%; in assay [8], 0.45%; in assay [9], 5.06%; in [11] it was 22.1%; in assay [14] it was 12.2%. In addition, the Activity is 6.06% in [15]; 21.9% in [16]; 5.57% in [17]; 2.82% in assay [18]; 1.5% in [20]; 1.99% in assay [23]. Moreover, the outcome in [6], in assay [10], in assay [13], in assay [22], in [25] and in assay [26] was Active. For the same molecule, the viability at 2000 µM is 96% in [12], 77.7% in [19], 60.1% in assay [21] and 70.5% in assay [24].

As to `COc1cccc2c1C(=O)c1c(O)c3c(c(O)c1C2=O)C[C@@](O)(C(=O)CO)C[C@@H]3O[C@H]1C[C@H](N)[C@H](O)[C@H](C)O1` [DOXORUBICIN], the IC50 is 1.4 µM in assay [1], 0.17 µM in assay [2], above 10 µM in assay [3] and above 10 µM in [4]. The result in [27] and in assay [28] was inactive. Moreover, in [29], the outcome was Active.

With `C=C(CO)C(=O)O[C@H]1C/C(COC(C)=O)=C/CC/C(C)=C/[C@H]2OC(=O)C(=C)[C@H]12`, the IC50 in assay [1] was above 10 µM; in assay [2], 3.5 µM; in [3] it was 7.7 µM; in assay [4], above 10 µM.
